# From the OligoGym collection
# Oligonucleotides are written 5' to 3', each unit as a sugar letter and its base; * is a phosphorothioate linkage, no mark a phosphodiester; rarer units and linkages stand in square brackets, end groups in braces. Plain capitals give the bases only. d = 2'-deoxy (DNA); r = 2'-OH (RNA)
# Molecular target: UBE2W
# Assay: reporter assay of Huesken 2005
# Conditions: siRNA
# Note: test concentration or dose not given here.
row,Substance,normalised inhibition (eCFP-eYFP dual reporter) [%]
1,sense rGrArArGrArCrUrGrGrUrCrCrCrCrArGrCrGrCdTdT / antisense rGrCrGrCrUrGrGrGrGrArCrCrArGrUrCrUrUrCdTdG,80.5
2,sense rArUrGrGrArArGrGrUrGrCrArCrCrArGrGrUrAdTdT / antisense rUrArCrCrUrGrGrUrGrCrArCrCrUrUrCrCrArUdGdT,86.1
3,sense rUrUrArCrArCrArGrUrGrGrArUrUrGrUrArGrAdTdT / antisense rUrCrUrArCrArArUrCrCrArCrUrGrUrGrUrArAdTdT,92.6
4,sense rUrCrCrArArUrCrArGrUrUrUrGrUrCrUrUrArGdTdT / antisense rCrUrArArGrArCrArArArCrUrGrArUrUrGrGrAdCdT,85
5,sense rUrUrUrUrGrArCrUrCrUrCrCrUrCrArGrGrUrCdTdT / antisense rGrArCrCrUrGrArGrGrArGrArGrUrCrArArArAdGdG,95
6,sense rCrCrUrCrCrUrGrGrArArUrGrArCrCrUrUrArAdTdT / antisense rUrUrArArGrGrUrCrArUrUrCrCrArGrGrArGrGdTdG,99.3
7,sense rCrArGrUrCrCrArArUrCrArGrUrUrUrGrUrCrUdTdT / antisense rArGrArCrArArArCrUrGrArUrUrGrGrArCrUrGdAdG,122
8,sense rCrGrArUrArUrCrCrUrUrUrUrGrArCrUrCrUrCdTdT / antisense rGrArGrArGrUrCrArArArArGrGrArUrArUrCrGdAdC,85.7
9,sense rGrUrGrArArArArUrArUrUrCrCrUrGrUrUrCrAdTdT / antisense rUrGrArArCrArGrGrArArUrArUrUrUrUrCrArCdCdA,82
10,sense rUrGrUrUrUrArUrCrCrArUrUrCrUrArArCrArGdTdT / antisense rCrUrGrUrUrArGrArArUrGrGrArUrArArArCrAdGdA,66.2
11,sense rGrArCrArUrGrGrArArGrGrUrGrCrArCrCrArGdTdT / antisense rCrUrGrGrUrGrCrArCrCrUrUrCrCrArUrGrUrCdTdA,94.9
12,sense rArUrGrArCrCrUrUrArArArUrGrArGrArArGrAdTdT / antisense rUrCrUrUrCrUrCrArUrUrUrArArGrGrUrCrArUdTdC,68.9
13,sense rUrArCrUrGrGrUrGrArArArArUrArUrUrCrCrUdTdT / antisense rArGrGrArArUrArUrUrUrUrCrArCrCrArGrUrAdAdA,94.4
14,sense rUrArArCrArGrArArGrArCrUrGrGrUrCrCrCrCdTdT / antisense rGrGrGrGrArCrCrArGrUrCrUrUrCrUrGrUrUrAdGdA,64.7
15,sense rCrUrUrUrCrCrArGrCrUrGrCrArArGrGrArArAdTdT / antisense rUrUrUrCrCrUrUrGrCrArGrCrUrGrGrArArArGdCdA,103
16,sense rCrArCrArGrUrGrGrArUrUrGrUrArGrArCrArUdTdT / antisense rArUrGrUrCrUrArCrArArUrCrCrArCrUrGrUrGdTdA,115
17,sense rArGrUrArGrUrCrGrArUrArUrCrCrUrUrUrUrGdTdT / antisense rCrArArArArGrGrArUrArUrCrGrArCrUrArCrUdAdA,124
18,sense rArArGrArGrArCrGrArCrCrArCrCrGrGrArUrAdTdT / antisense rUrArUrCrCrGrGrUrGrGrUrCrGrUrCrUrCrUrUdTdT,82.7
19,sense rUrGrCrArCrCrArGrGrUrArCrCrUrUrArUrArUdTdT / antisense rArUrArUrArArGrGrUrArCrCrUrGrGrUrGrCrAdCdC,78
20,sense rArArGrArGrUrGrUrUrCrArArArArUrUrCrArAdTdT / antisense rUrUrGrArArUrUrUrUrGrArArCrArCrUrCrUrUdCdT,114
21,sense rUrCrUrArArCrArGrArArGrArCrUrGrGrUrCrCdTdT / antisense rGrGrArCrCrArGrUrCrUrUrCrUrGrUrUrArGrAdAdT,73.3
22,sense rArArArArUrUrCrArArUrUrArCrArCrArGrUrGdTdT / antisense rCrArCrUrGrUrGrUrArArUrUrGrArArUrUrUrUdGdA,76.8
23,sense rGrCrArArGrGrArArArArGrArGrArCrGrArCrCdTdT / antisense rGrGrUrCrGrUrCrUrCrUrUrUrUrCrCrUrUrGrCdAdG,112
24,sense rUrCrArUrCrCrUrCrArUrGrUrUrUrArUrArGrCdTdT / antisense rGrCrUrArUrArArArCrArUrGrArGrGrArUrGrAdAdC,78.8
25,sense rArArCrUrUrCrUrArUrUrUrArArArUrUrUrArGdTdT / antisense rCrUrArArArUrUrUrArArArUrArGrArArGrUrUdGdA,96.1
26,sense rGrArGrArArGrArGrUrGrUrUrCrArArArArUrUdTdT / antisense rArArUrUrUrUrGrArArCrArCrUrCrUrUrCrUrCdAdT,116

row,Substance,normalised inhibition (eCFP-eYFP dual reporter) [%]
1,sense rGrUrUrCrArArArArUrUrCrArArUrUrArCrArCdTdT / antisense rGrUrGrUrArArUrUrGrArArUrUrUrUrGrArArCdAdC,73.6
2,sense rCrArArGrGrArArArArGrArGrArCrGrArCrCrAdTdT / antisense rUrGrGrUrCrGrUrCrUrCrUrUrUrUrCrCrUrUrGdCdA,110
3,sense rUrUrUrArCrUrGrGrUrGrArArArArUrArUrUrCdTdT / antisense rGrArArUrArUrUrUrUrCrArCrCrArGrUrArArAdCdA,91.2
4,sense rArGrGrUrGrCrArCrCrArGrGrUrArCrCrUrUrAdTdT / antisense rUrArArGrGrUrArCrCrUrGrGrUrGrCrArCrCrUdTdC,93.2
5,sense rUrGrCrGrArArCrArUrGrUrArArCrArArGrArAdTdT / antisense rUrUrCrUrUrGrUrUrArCrArUrGrUrUrCrGrCrAdCdA,104
6,sense rUrGrGrUrGrArArArArUrArUrUrCrCrUrGrUrUdTdT / antisense rArArCrArGrGrArArUrArUrUrUrUrCrArCrCrAdGdT,115
7,sense rArArUrCrArGrUrUrUrGrUrCrUrUrArGrCrArUdTdT / antisense rArUrGrCrUrArArGrArCrArArArCrUrGrArUrUdGdG,104
8,sense rUrCrCrArUrUrCrUrArArCrArGrArArGrArCrUdTdT / antisense rArGrUrCrUrUrCrUrGrUrUrArGrArArUrGrGrAdTdA,64.1
9,sense rUrCrCrUrUrUrUrGrArCrUrCrUrCrCrUrCrArGdTdT / antisense rCrUrGrArGrGrArGrArGrUrCrArArArArGrGrAdTdA,78.4
10,sense rUrArUrUrCrCrUrGrUrUrCrArUrCrCrUrCrArUdTdT / antisense rArUrGrArGrGrArUrGrArArCrArGrGrArArUrAdTdT,104
11,sense rUrCrCrUrGrUrUrCrArUrCrCrUrCrArUrGrUrUdTdT / antisense rArArCrArUrGrArGrGrArUrGrArArCrArGrGrAdAdT,108
12,sense rArUrCrCrUrCrArUrGrUrUrUrArUrArGrCrArAdTdT / antisense rUrUrGrCrUrArUrArArArCrArUrGrArGrGrArUdGdA,104
13,sense rUrArCrCrUrUrArUrArUrGrArArGrGrGrGrArAdTdT / antisense rUrUrCrCrCrCrUrUrCrArUrArUrArArGrGrUrAdCdC,111
14,sense rGrGrUrCrArUrGrUrUrUrArCrUrGrGrUrGrArAdTdT / antisense rUrUrCrArCrCrArGrUrArArArCrArUrGrArCrCdTdG,103
15,sense rArGrCrArUrUrArUrUrArGrCrArUrGrCrUrUrUdTdT / antisense rArArArGrCrArUrGrCrUrArArUrArArUrGrCrUdAdA,84.8
16,sense rCrUrGrUrUrCrArUrCrCrUrCrArUrGrUrUrUrAdTdT / antisense rUrArArArCrArUrGrArGrGrArUrGrArArCrArGdGdA,113
17,sense rUrGrArCrCrUrUrArArArUrGrArGrArArGrArGdTdT / antisense rCrUrCrUrUrCrUrCrArUrUrUrArArGrGrUrCrAdTdT,75
18,sense rArArArArUrArUrUrCrCrUrGrUrUrCrArUrCrCdTdT / antisense rGrGrArUrGrArArCrArGrGrArArUrArUrUrUrUdCdA,53.5
19,sense rGrCrGrCrUrCrUrCrArGrUrCrCrArArUrCrArGdTdT / antisense rCrUrGrArUrUrGrGrArCrUrGrArGrArGrCrGrCdTdG,109
20,sense rArUrUrArGrCrArUrGrCrUrUrUrCrCrArGrCrUdTdT / antisense rArGrCrUrGrGrArArArGrCrArUrGrCrUrArArUdAdA,67.5
21,sense rCrUrCrCrUrGrGrArArUrGrArCrCrUrUrArArAdTdT / antisense rUrUrUrArArGrGrUrCrArUrUrCrCrArGrGrArGdGdT,100
22,sense rArUrGrUrUrUrArUrArGrCrArArUrGrGrUrCrAdTdT / antisense rUrGrArCrCrArUrUrGrCrUrArUrArArArCrArUdGdA,96.2
23,sense rArGrUrCrGrArUrArUrCrCrUrUrUrUrGrArCrUdTdT / antisense rArGrUrCrArArArArGrGrArUrArUrCrGrArCrUdAdC,81.4
24,sense rArArUrUrArCrArCrArGrUrGrGrArUrUrGrUrAdTdT / antisense rUrArCrArArUrCrCrArCrUrGrUrGrUrArArUrUdGdA,112
25,sense rArUrCrArGrUrUrUrGrUrCrUrUrArGrCrArUrUdTdT / antisense rArArUrGrCrUrArArGrArCrArArArCrUrGrArUdTdG,107
26,sense rArCrUrGrGrUrCrCrCrCrArGrCrGrCrUrCrUrCdTdT / antisense rGrArGrArGrCrGrCrUrGrGrGrGrArCrCrArGrUdCdT,93.1
